Patent US8247211B2, “Glycopeptide antibiotics” (American Cyanamid Company, priority 2001, dated 2012)
In brackets after ≈: the same amount, converted by molar mass.

Key:
Test in all cases: In vitro antibacterial evaluation: minimum inhibitory concentration (MIC), broth dilution method
Assay type in all cases: cell-based
[1] = tested on: Enterococcus sp.; conditions: broth dilution, 5×10^5 CFU/mL, 18 hours at 35° C.
Method: (§1) The minimum inhibitory concentration (MIC), the lowest concentration of the antibiotic which inhibits growth of the test organism, is determined by the broth dilution method using Muller-Hinton II […] (Baltimore Biological Laboratories) following the recommendations of the National Committee for Clinical Laboratory Standards [Methods for dilution antimicrobial susceptibility tests for bacteria that grow aerobically, approved standard M7-A2, National Committee for Clinical Laboratory Standards, Villanova, Pa].
(§2) An inoculum level of 5×10^5 CFU/mL, and a range of antibiotic concentrations (64-0.06 μg/mL) is used. […] The test organisms include a spectrum of Gram-positive bacteria comprised of Staphylococcus sp., Streptococcus sp. and Enterococcus sp. These organisms include recent clinical isolates that are resistant to methicillin, penicillin and/or vancomycin.

[2] = tested on: Staphylococcus sp.; conditions: for MIC Staphylococcus aureus (ATCC 29213): strain ATCC 29213; for MIC Staphylococcus aureus (GC 1131): strain GC 1131; for MIC Staphylococcus aureus (GC 3051): strain GC 3051; for MIC Staphylococcus aureus (GC 3053): strain GC 3053; for MIC Staphylococcus aureus (GC 4541): strain GC 4541; for MIC Staphylococcus aureus (GC 4542): strain GC 4542; for MIC Staphylococcus aureus (GC 4544): strain GC 4544; for MIC Staphylococcus aureus (GC 4545): strain GC 4545
Method: as §1, §2

[3] = tested on: Streptococcus sp.; conditions: broth dilution, 5×10^5 CFU/mL, 18 hours at 35° C.
Method: as §1, §2

[4] = tested on: Escherichia coli; conditions: 5×10^5 CFU/mL, 18 hours at 35° C.
Method: as §1, §2

[5] = broth dilution, 5×10^5 CFU/mL, 18 hours at 35° C.
[6] = broth dilution, 18 hours at 35° C.

MIC Enterococccus avium (GC 4558) [1]: 16 µg/mL (≈ 9.69 µM)
MIC Enterococccus faecalis (ATCC 29212) [1]: 32 µg/mL (≈ 19.4 µM)
MIC Enterococccus faecalis (GC 2691) [1]: 32 µg/mL (≈ 19.4 µM)
MIC Enterococccus faecalis (GC 3059) [1]: 64 µg/mL (≈ 38.7 µM)
MIC Enterococccus faecalis (GC 4552) [1]: 32 µg/mL (≈ 19.4 µM)
MIC Enterococccus faecalis (GC 4553) [1]: 8 µg/mL (≈ 4.84 µM)
MIC Enterococccus faecalis (GC 4554) [1]: 32 µg/mL (≈ 19.4 µM)
MIC Enterococccus faecalis (GC 6189) [1]: 32 µg/mL (≈ 19.4 µM)
MIC Enterococccus faecium (GC 2243) [1]: 8 µg/mL (≈ 4.84 µM)
MIC Enterococccus faecium (GC 4556) [1]: 64 µg/mL (≈ 38.7 µM)
MIC Enterococccus faecium (GC 4557) [1]: 32 µg/mL (≈ 19.4 µM)
MIC Enterococcus faecalis (GC 2242) [1]: 32 µg/mL (≈ 19.4 µM)
MIC Coagulase Negative Staphylococcus (GC 4547) [2, 5]: 32 µg/mL (≈ 19.4 µM)
MIC Coagulase Negative Staphylococcus (GC 4548) [2, 5]: 32 µg/mL (≈ 19.4 µM)
MIC Coagulase Negative Staphylococcus (GC 4549) [2, 5]: 16 µg/mL (≈ 9.69 µM)
MIC Coagulase Negative Staphylococcus (GC 4551) [2, 5]: 32 µg/mL (≈ 19.4 µM)
MIC Coagulase Negative Staphylococcus (GC 6257) [2, 5]: 32 µg/mL (≈ 19.4 µM)
MIC Staphylococcus aureus-SMITH (GC 4543) [2, 5]: 32 µg/mL (≈ 19.4 µM)
MIC Staphylococcus aureus (ATCC 29213) [2]: 32 µg/mL (≈ 19.4 µM)
MIC Staphylococcus aureus (ATCC 29213) [2, 6]: 32 µg/mL (≈ 19.4 µM)
MIC Staphylococcus aureus (GC 1131) [2]: 32 µg/mL (≈ 19.4 µM)
MIC Staphylococcus aureus (GC 1131) [2, 6]: 32 µg/mL (≈ 19.4 µM)
MIC Staphylococcus aureus (GC 3051) [2]: 32 µg/mL (≈ 19.4 µM)
MIC Staphylococcus aureus (GC 3051) [2, 6]: 32 µg/mL (≈ 19.4 µM)
MIC Staphylococcus aureus (GC 3053) [2]: 32 µg/mL (≈ 19.4 µM)
MIC Staphylococcus aureus (GC 3053) [2, 6]: 32 µg/mL (≈ 19.4 µM)
MIC Staphylococcus aureus (GC 4541) [2]: 32 µg/mL (≈ 19.4 µM)
MIC Staphylococcus aureus (GC 4541) [2, 6]: 32 µg/mL (≈ 19.4 µM)
MIC Staphylococcus aureus (GC 4542) [2]: 32 µg/mL (≈ 19.4 µM)
MIC Staphylococcus aureus (GC 4542) [2, 6]: 32 µg/mL (≈ 19.4 µM)
MIC Staphylococcus aureus-SMITH (GC 4543) ([2]; strain GC 4543, broth dilution, 18 hours at 35° C.): 32 µg/mL (≈ 19.4 µM)
MIC Staphylococcus aureus (GC 4544) [2]: 32 µg/mL (≈ 19.4 µM)
MIC Staphylococcus aureus (GC 4544) [2, 6]: 32 µg/mL (≈ 19.4 µM)
MIC Staphylococcus aureus (GC 4545) [2]: 32 µg/mL (≈ 19.4 µM)
MIC Staphylococcus aureus (GC 4545) [2, 6]: 32 µg/mL (≈ 19.4 µM)
MIC Coagulase Negative Staphylococcus (GC 4547) ([2]; strain GC 4547, broth dilution, 18 hours at 35° C.): 32 µg/mL (≈ 19.4 µM)
MIC Coagulase Negative Staphylococcus (GC 4548) ([2]; strain GC 4548, broth dilution, 18 hours at 35° C.): 32 µg/mL (≈ 19.4 µM)
MIC Coagulase Negative Staphylococcus (GC 4549) ([2]; strain GC 4549, broth dilution, 18 hours at 35° C.): 16 µg/mL (≈ 9.69 µM)
MIC Coagulase Negative Staphylococcus (GC 4551) ([2]; strain GC 4551, broth dilution, 18 hours at 35° C.): 32 µg/mL (≈ 19.4 µM)
MIC Coagulase Negative Staphylococcus (GC 6257) ([2]; strain GC 6257, broth dilution, 18 hours at 35° C.): 32 µg/mL (≈ 19.4 µM)
MIC Streptococcus agalactiae (GC 4564) [3]: 8 µg/mL (≈ 4.84 µM)
MIC Streptococcus pneumoniae (GC 1894) [3]: 1 µg/mL (≈ 0.605 µM)
MIC Streptococcus pneumoniae (GC 4565) [3]: 4 µg/mL (≈ 2.42 µM)
MIC Streptococcus pneumonine (ATCC 6301) [3]: 8 µg/mL (≈ 4.84 µM)
MIC Streptococcus pyogenes (GC 4563) [3]: 16 µg/mL (≈ 9.69 µM)
MIC Escherichia coli (ATCC 25922) [4]: >64 µg/mL
MIC Escherichia coli (GC 4559) [4]: >64 µg/mL
MIC Escherichia coli (GC 4560) [4]: 64 µg/mL (≈ 38.7 µM)
SMILES: COC1CCC2(C)C(CCC3C2CCC2(C)C(C(C)CCC4OCC5OC(OC6C(CO)OC(Oc7ccc(CC8NC(=O)C(C(C)c9ccccc9)NC(=O)CNC(=O)C(CO)NC(=O)C(C(O)C9CNC(=N)N9C9OC(CO)C(O)C(O)C9O)NC(=O)C(C(O)C9CNC(=N)N9)NC8=O)cc7)C(O)C6O)C(O)C(O)C5O4)CCC32)C1 (stereo not drawn) [Example 130, Cyclo[glycyl-β-methylphenylalanyl-O-[4-O-[4,6-O-(3-methoxycholan-24-ylidene)hexopyranosyl]hexopyranosyl]tyrosyl-3-(2-iminoimidazolidin-4-yl)seryl-3-(3-hexopyranosyl-2-iminoimidazolidin-4-yl)serylseryl]]
MIC Staphylococcus haemolyticus (GC 4546) [2, 5]: 32 µg/mL (≈ 19.4 µM)
MIC Staphylococcus haemolyticus (GC 4546) ([2]; strain GC 4546, broth dilution, 18 hours at 35° C.): 32 µg/mL (≈ 19.4 µM)
